{"source": "patent US11136296B2", "about": "“Substituted N-arylethyl-2-arylquinoline-4-carboxamides and use thereof” (Bayer Aktiengesellschaft, priority 2017, dated 2021)", "data": [{"biological_target": "FP receptor (Homo sapiens (Human), UniProt P43088)", "sequence (P43088 whole entry)": "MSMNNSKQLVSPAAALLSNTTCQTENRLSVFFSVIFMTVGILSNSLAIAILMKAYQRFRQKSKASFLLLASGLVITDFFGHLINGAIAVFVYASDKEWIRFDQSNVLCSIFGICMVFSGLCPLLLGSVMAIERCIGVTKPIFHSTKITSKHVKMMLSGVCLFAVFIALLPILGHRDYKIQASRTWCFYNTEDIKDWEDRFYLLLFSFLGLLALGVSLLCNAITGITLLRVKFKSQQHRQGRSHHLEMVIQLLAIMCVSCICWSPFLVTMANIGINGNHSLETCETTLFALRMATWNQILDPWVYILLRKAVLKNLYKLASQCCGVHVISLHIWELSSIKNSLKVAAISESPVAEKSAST", "assay": "In vitro test of inhibition of human FP receptor activity (PGF2α-induced calcium flux in FP-expressing CHEM1 cells)", "type": "cell-based", "settings": "PGF2α-induced (2 nM) calcium flux in FP-expressing CHEM1 cells; some as mean values from multiple determinations", "from_the_text": "Table 1 below lists the IC50 values from this assay for individual working examples of the invention (some as mean values from multiple independent individual determinations): […]", "units": {"IC50": "nM"}, "values": [{"molecule": "Cc1c(-c2ccccc2)nc2ccc(Br)cc2c1C(=O)NCC(O)(C(=O)O)c1ccccc1", "note": "(single isomer, unassigned; (+)) [Example 20, (+)-3-{[(6-Bromo-3-methyl-2-phenylquinolin-4-yl)carbonyl]amino}-2-hydroxy-2-phenylpropanoic Acid]", "IC50": 97}, {"molecule": "Cc1c(-c2ccccc2)nc2ccc(Br)cc2c1C(=O)NCC(C)(C(=O)O)c1ccccc1F", "note": "(single isomer, unassigned; (+)) [Example 30, (+)-3-{[(6-Bromo-3-methyl-2-phenylquinolin-4-yl)carbonyl]amino}-2-(2-fluorophenyl)-2-methylpropanoic Acid]", "IC50": 340}, {"molecule": "Cc1c(-c2ccccc2)nc2ccc(Br)cc2c1C(=O)NCC(C)(C(=O)O)c1c(F)cccc1F", "note": "(single isomer, unassigned; (+)) [Example 33, (+)-3-{[(6-Bromo-3-methyl-2-phenylquinolin-4-yl)carbonyl]amino}-2-(2,6-difluorophenyl)-2-methylpropanoic Acid]", "IC50": 190}, {"molecule": "Cc1c(-c2ccccc2)nc2ccc(Br)cc2c1C(=O)NCC(C)(C(=O)O)c1ccccc1Cl", "note": "(single isomer, unassigned; (+)) [Example 37, (+)-3-{[(6-Bromo-3-methyl-2-phenylquinolin-4-yl)carbonyl]amino}-2-(2-chlorophenyl)-2-methylpropanoic Acid]", "IC50": 160}, {"molecule": "Cc1c(-c2ccccc2)nc2ccc(Br)cc2c1C(=O)NCC(F)(C(=O)O)c1ccccc1", "note": "(single isomer, unassigned; (+)) [Example 40, (+)-3-{[(6-Bromo-3-methyl-2-phenylquinolin-4-yl)carbonyl]amino}-2-fluoro-2-phenylpropanoic Acid]", "IC50": 34}, {"molecule": "Cc1c(-c2ccccc2)nc2ccc(Br)cc2c1C(=O)NCC(C)(C(=O)O)c1cccc(C(F)(F)F)c1", "note": "(single isomer, unassigned; (+)) [Example 43, (+)-3-{[(6-Bromo-3-methyl-2-phenylquinolin-4-yl)carbonyl]amino}-2-methyl-2-[3-(trifluoromethyl)phenyl]propanoic Acid]", "IC50": 140}, {"molecule": "COc1cccc(C(CNC(=O)c2c(C)c(-c3ccccc3)nc3ccc(Br)cc23)C(=O)O)c1", "note": "(single isomer, unassigned; (+)) [Example 46, (+)-3-{[(6-Bromo-3-methyl-2-phenylquinolin-4-yl)carbonyl]amino}-2-(3-methoxyphenyl)propanoic Acid]", "IC50": 230}, {"molecule": "Cc1c(-c2ccccc2)nc2ccc(Br)cc2c1C(=O)NCC(C(=O)O)c1cccc(Cl)c1", "note": "(single isomer, unassigned; (+)) [Example 49, (+)-3-{[(6-Bromo-3-methyl-2-phenylquinolin-4-yl)carbonyl]amino}-2-(3-chlorophenyl)propanoic Acid]", "IC50": 69}, {"molecule": "Cc1cccc(C(CNC(=O)c2c(C)c(-c3ccccc3)nc3ccc(Br)cc23)C(=O)O)c1", "note": "(single isomer, unassigned; (+)) [Example 52, (+)-3-{[(6-Bromo-3-methyl-2-phenylquinolin-4-yl)carbonyl]amino}-2-(3-methylphenyl)propanoic Acid]", "IC50": 71}, {"molecule": "COc1ccccc1C(O)(CNC(=O)c1c(C)c(-c2ccccc2)nc2ccc(Br)cc12)C(=O)O", "note": "(single isomer, unassigned; (+)) [Example 55, (+)-3-{[(6-Bromo-3-methyl-2-phenylquinolin-4-yl)carbonyl]amino}-2-hydroxy-2-(2-methoxyphenyl)propanoic Acid]", "IC50": 78}, {"molecule": "COc1cccc(F)c1C(CNC(=O)c1c(C)c(-c2ccccc2)nc2ccc(Br)cc12)C(=O)O", "note": "(single isomer, unassigned; (+)) [Example 58, (+)-3-{[(6-Bromo-3-methyl-2-phenylquinolin-4-yl)carbonyl]amino}-2-(2-fluoro-6-methoxyphenyl)propanoic Acid]", "IC50": 9.7}, {"molecule": "COc1ccccc1C(C)(CNC(=O)c1c(C)c(-c2ccccc2)nc2ccc(Br)cc12)C(=O)O", "note": "(single isomer, unassigned; (+)) [Example 60, (+)-3-{[(6-Bromo-3-methyl-2-phenylquinolin-4-yl)carbonyl]amino}-2-(2-methoxyphenyl)-2-methylpropanoic Acid]", "IC50": 120}]}]}
